Key:
Bacillus cereus = test: Agar plate disc-diffusion, antibacterial activity (inhibition zone); type: cell-based; conditions: nutrient agar, 37° C., 48 h
Experimental: (§1) The agar plate disc-diffusion method was applied. […] The discs were then placed onto the surface of agar plates (nutrient agar for bacteria and Sabouraud's dextrose agar for fungi) seeded with the test organism. Each plate contained 15 mL of the agar medium, previously seeded with 0.2 mL of the broth culture of each organism pregrown for 18 hours. The plates were incubated at 37° C. for 48 h, and 72 h for fungi. The inhibition zones were measured in mm. Discs impregnated with DMSO were used as a control, and its inhibition zone was subtracted from the tested compound actual inhibition zone.

Escherichia coli = test: as above; type: cell-based; conditions: nutrient agar, 37° C., 48 h
Experimental: as §1

Pseudomonas aeruginosa = test: as above; type: cell-based; conditions: nutrient agar, 37° C., 48 h
Experimental: as §1

Staphylococcus aureus = test: as above; type: cell-based; conditions: nutrient agar, 37° C., 48 h
Experimental: as §1

Aspergillus flavus = test: Agar plate disc-diffusion, antifungal activity (inhibition zone); type: cell-based; conditions: Sabouraud's dextrose agar, 37° C., 72 h
Experimental: as §1

[1] = tested on: Chrysosporium keratinophilum; test: as above; type: cell-based; conditions: Sabouraud's dextrose agar, 37° C., 72 h
Experimental: as §1

[2] = A = concentration of comp. = 10,000 μL
[3] = B = concentration of comp. = 30,000 μL
[4] = C = concentration of comp. = 50,000 μL

O=C(O)c1ccc(-n2c(-c3ccccc3)nc(-c3ccc(Br)cc3)c2-c2ccc(Br)cc2)cc1 [V, 4-(4,5-bis(4-bromophenyl)-2-phenyl-1H-imidazol-1-yl)benzoic acid]
inhibition zone, Bacillus Cereus, A (Bacillus cereus; [2]): 24 mm | inhibition zone, Bacillus Cereus, B (Bacillus cereus; [3]): 27 mm | inhibition zone, Bacillus Cereus, C (Bacillus cereus; [4]): 39 mm | inhibition zone, Escherichia coli, A (Escherichia coli; [2]): 28 mm | inhibition zone, Escherichia coli, B (Escherichia coli; [3]): 35 mm | inhibition zone, Escherichia coli, C (Escherichia coli; [4]): 50 mm | inhibition zone, Pseudomonas aeruginosa, A (Pseudomonas aeruginosa; [2]): 25 mm | inhibition zone, Pseudomonas aeruginosa, B (Pseudomonas aeruginosa; [3]): 28 mm | inhibition zone, Pseudomonas aeruginosa, C (Pseudomonas aeruginosa; [4]): 44 mm | inhibition zone, Staphylococcus aureus, A (Staphylococcus aureus; [2]): 18 mm | inhibition zone, Staphylococcus aureus, B (Staphylococcus aureus; [3]): 21 mm | inhibition zone, Staphylococcus aureus, C (Staphylococcus aureus; [4]): 31 mm | inhibition zone, Aspergillus flavus, A (Aspergillus flavus; [2]): 23 mm | inhibition zone, Aspergillus flavus, B (Aspergillus flavus; [3]): 27 mm | inhibition zone, Aspergillus flavus, C (Aspergillus flavus; [4]): 33 mm | inhibition zone, Chrysosporium keratinophilum, A [1, 2]: 27 mm | inhibition zone, Chrysosporium keratinophilum, B [1, 3]: 29 mm | inhibition zone, Chrysosporium keratinophilum, C [1, 4]: 48 mm | melting point: 284 °C

Source: patent US11970460B1, “4-(4,5-bis(4-bromophenyl)-2-phenyl-1H-imidazol-1-yl)benzoic acid as an antimicrobial compound” (KING FAISAL UNIVERSITY, priority 2023, dated 2024)
